Experimental data: US11851426B2, “Bicyclic amines as CDK2 inhibitors” (Incyte Corporation, priority 2019, dated 2023)

These compounds were tested against CDK2/Cyclin E1 (Homo sapiens (Human), UniProt P24941) (assay: CDK2/Cyclin E1 HTRF enzyme activity assay). Conditions: 1 mM ATP; CDK2/Cyclin E1 0.25 nM; 60 minutes at room temperature.
Format: biochemical
Procedure, shortened: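 Full-length GST-CDK2 co-expressed with FLAG-Cyclin E1 (baculovirus), 0.25 nM, reacted with 50 nM ULight-4E-BP1 (Thr37/46) peptide at 50 μM or 1 mM ATP in HEPES pH 7.5 buffer, 60 min, room temperature. EDTA plus Eu-anti-phospho-4E-BP1 antibody stopped the reaction; HTRF read after 1 h; IC50 from three- or four-parameter fits.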

| SMILES | IC50 [nM] |
| --- | --- |
| C[C@@H]1CN(S(C)(=O)=O)CC[C@@H]1Nc1nc2cnc(-c3cn[nH]c3)c(OC3CCC3)n2n1 [Example 100, 5-Cyclobutoxy-N-((3R,4S)-3-methyl-1-(methylsulfonyl)piperidin-4-yl)-6-(1H-pyrazol-4-yl)-[1,2,4]triazolo[1,5-a]pyrazin-2-amine] | ≤ 20 |
| CS(=O)(=O)N1CCC(Nc2nc3cnc(-c4cn[nH]c4)c(N4CCCCC4)n3n2)CC1 [Example 126, N-(1-(Methylsulfonyl)piperidin-4-yl)-5-(piperidin-1-yl)-6-(1H-pyrazol-4-yl)-[1,2,4]triazolo[1,5-a]pyrazin-2-amine] | ≤ 20 |
| CC(C)COc1c(-c2cn[nH]c2)ncn2nc(NC3CCN(S(C)(=O)=O)CC3)nc12 [Example 44, 8-Isobutoxy-N-(1-(methylsulfonyl)piperidin-4-yl)-7-(1H-pyrazol-4-yl)-[1,2,4]triazolo[1,5-c]pyrimidin-2-amine] | ≤ 20 |
| C[C@@H]1CN(S(C)(=O)=O)CC[C@@H]1Nc1nc2ccc(-c3cn[nH]c3)c(OCC(F)F)n2n1 [Example 72, 5-(2,2-Difluoroethoxy)-N-((3R,4S)-3-methyl-1-(methylsulfonyl)piperidin-4-yl)-6-(1H-pyrazol-4-yl)-[1,2,4]triazolo[1,5-a]pyridin-2-amine] | ≤ 20 |
| CC(C)Oc1c(-c2cn[nH]c2)ncc2nc(N[C@H]3CCN(S(C)(=O)=O)C[C@H]3C)nn12 [Example 87, 5-Isopropoxy-N-((3R,4S)-3-methyl-1-(methylsulfonyl)piperidin-4-yl)-6-(1H-pyrazol-4-yl)-[1,2,4]triazolo[1,5-a]pyrazin-2-amine] | ≤ 20 |
| CS(=O)(=O)N1CCC(Nc2nc3c(OCC(F)(F)F)c(-c4cn[nH]c4)ccn3n2)CC1 [Example 10, N-(1-(methylsulfonyl)piperidin-4-yl)-7-(1H-pyrazol-4-yl)-8-(2,2,2-trifluoroethoxy)-[1,2,4]triazolo[1,5-a]pyridin-2-amine] | ≤ 20 |
| CS(=O)(=O)N1CCC(Nc2nc3c(-c4ccccc4)c(-c4cn[nH]c4)ccn3n2)CC1 [Example 22, N-(1-(methylsulfonyl)piperidin-4-yl)-8-phenyl-7-(1H-pyrazol-4-yl)-[1,2,4]triazolo[1,5-a]pyridin-2-amine] | ≤ 20 |
| C[C@@H]1CN(S(=O)(=O)c2cnn(C)c2)CC[C@@H]1Nc1nc2cnc(-c3cn[nH]c3)c(OC3CCC3)n2n1 [Example 94, 5-Cyclobutoxy-N-((3R,4S)-3-methyl-1-((1-methyl-1H-pyrazol-4-yl)sulfonyl)piperidin-4-yl)-6-(1H-pyrazol-4-yl)-[1,2,4]triazolo[1,5-a]pyrazin-2-amine] | ≤ 20 |
| CC1CC(Oc2c(-c3cn[nH]c3)ncc3nc(N[C@H]4CCN(S(C)(=O)=O)C[C@H]4C)nn23)C1 (stereo partly drawn) [Example 107, N-((3R,4S)-3-Methyl-1-(methylsulfonyl)piperidin-4-yl)-5-(3-methylcyclobutoxy)-6-(1H-pyrazol-4-yl)-[1,2,4]triazolo[1,5-a]pyrazin-2-amine] | ≤ 20 |
| [2H]C([2H])([2H])C([2H])(Oc1c(-c2cn[nH]c2)ncc2nc(N[C@H]3CCN(S(C)(=O)=O)C[C@H]3C)nn12)C([2H])([2H])[2H] [Example 139, N-((3R,4S)-3-Methyl-1-(methylsulfonyl)piperidin-4-yl)-5-((propan-2-yl-d7)oxy)-6-(1H-pyrazol-4-yl)-[1,2,4]triazolo[1,5-a]pyrazin-2-amine] | ≤ 20 |
| CC1CC(Oc2c(-c3cn[nH]c3)ncc3nc(N[C@H]4CCN(S(C)(=O)=O)C[C@H]4C)nn23)CCO1 (stereo partly drawn) [Example 112, N-((3R,4S)-3-Methyl-1-(methylsulfonyl)piperidin-4-yl)-5-((2-methyltetrahydro-2H-pyran-4-yl)oxy)-6-(1H-pyrazol-4-yl)-[1,2,4]triazolo[1,5-a]pyrazin-2-amine] | ≤ 20 |
| CC(C)Oc1c(-c2cn[nH]c2)ncn2nc(N[C@H]3CCN(S(=O)(=O)CCCCN(C)C)C[C@H]3C)nc12 [Example 66] | ≤ 20 |
| CS(=O)(=O)N1CCC(Nc2nc3c(OC4CCOCC4)c(-c4cn[nH]c4)ccn3n2)CC1 [Example 5, N-(1-(methylsulfonyl)piperidin-4-yl)-7-(1H-pyrazol-4-yl)-8-((tetrahydro-2H-pyran-4-yl)oxy)-[1,2,4]triazolo[1,5-a]pyridin-2-amine] | ≤ 20 |
| CC(C)Oc1c(-c2cn[nH]c2)ncn2nc(N[C@H]3CCN(S(C)(=O)=O)C[C@H]3C)nc12 [Example 33, 8-isopropoxy-N-((3R,4S)-3-methyl-1-(methylsulfonyl)piperidin-4-yl)-7-(1H-pyrazol-4-yl)-[1,2,4]triazolo[1,5-c]pyrimidin-2-amine] | ≤ 20 |
| C[C@@H]1CN(S(=O)(=O)c2cnn(C)c2)CC[C@@H]1Nc1nc2ccc(-c3cn[nH]c3)c(OC3CCOCC3)n2n1 [Example 99, N-((3R,4S)-3-Methyl-1-((1-methyl-1H-pyrazol-4-yl)sulfonyl)piperidin-4-yl)-6-(1H-pyrazol-4-yl)-5-((tetrahydro-2H-pyran-4-yl)oxy)-[1,2,4]triazolo[1,5-a]pyridin-2-amine] | ≤ 20 |
| CCN(CC)CCCS(=O)(=O)N1CC[C@H](Nc2nc3c(OC(C)C)c(-c4cn[nH]c4)ncn3n2)[C@H](C)C1 [Example 60, N-((3R,4S)-1-((3-(Diethylamino)propyl)sulfonyl)-3-methylpiperidin-4-yl)-8-isopropoxy-7-(1H-pyrazol-4-yl)-[1,2,4]triazolo[1,5-c]pyrimidin-2-amine] | ≤ 20 |
| CS(=O)(=O)N1CCC(Nc2nc3c(-c4ccc(F)cc4)c(-c4cn[nH]c4)ccn3n2)CC1 [Example 25, 8-(4-fluorophenyl)-N-(1-(methylsulfonyl)piperidin-4-yl)-7-(1H-pyrazol-4-yl)-[1,2,4]triazolo[1,5-a]pyridin-2-amine] | ≤ 20 |
| [2H]C([2H])([2H])C([2H])([2H])Oc1c(-c2cn[nH]c2)ccn2nc(N[C@H]3CCN(S(C)(=O)=O)C[C@H]3C)nc12 [Example 41, 8-(ethoxy-d5)-N-((3R,4S)-3-methyl-1-(methylsulfonyl)piperidin-4-yl)-7-(1H-pyrazol-4-yl)-[1,2,4]triazolo[1,5-a]pyridin-2-amine] | ≤ 20 |
| CCOc1c(-c2cn[nH]c2)ccn2nc(NC3CCN(S(C)(=O)=O)CC3)nc12 [Example 2, 8-ethoxy-N-(1-(methylsulfonyl)piperidin-4-yl)-7-(1H-pyrazol-4-yl)-[1.2.4]triazolo[1,5-a]pyridin-2-amine] | ≤ 20 |
| CS(=O)(=O)N1CCC(Nc2nc3cc(-c4cn[nH]c4)c(F)cn3n2)CC1 [Example 7, 6-fluoro-N-(1-(methylsulfonyl)piperidin-4-yl)-7-(1H-pyrazol-4-yl)-[1,2,4]triazolo[1,5-a]pyridin-2-amine] | ≤ 20 |
| C[C@@H]1CN(S(C)(=O)=O)CC[C@@H]1Nc1nc2cnc(-c3cn[nH]c3)c(OC3CCOCC3)n2n1 [Example 90] | ≤ 20 |
| CCOc1c(-c2cn[nH]c2)ccn2nc(N[C@H]3CCN(S(=O)(=O)c4cnn(C)n4)C[C@H]3C)nc12 [Example 21, 8-ethoxy-N-((3R,4S)-3-methyl-1-((2-methyl-2H-1,2,3-triazol-4-yl)sulfonyl)piperidin-4-yl)-7-(1H-pyrazol-4-yl)-[1,2,4]triazolo[1,5-a]pyridin-2-amine] | ≤ 20 |
